Data: article PMC7924852, “The Emericellipsins A–E from an Alkalophilic Fungus Emericellopsis alkalina Show Potent Activity against Multidrug-Resistant Pathogenic Fungi” (Journal of Fungi, 2021)

Columns and labels:
[1] = test system: Aspergillus niger ATCC 16404; assay: Disc-diffusion antifungal assay; format: cell-based; conditions: 40 µg/disc; A. niger ATCC 16404
A. fumigatus 390 m [2] = assay: Disc-diffusion antifungal assay; format: cell-based, Aspergillus fumigatus; conditions: 40 µg/disc, pathogenic clinical isolate
A. terreus 497 = assay: Disc-diffusion antifungal assay; format: cell-based; conditions: 40 µg/disc; A. terreus 497, pathogenic clinical isolate
[3] = test system: clinical isolates of Candida; assay: Disc-diffusion antifungal assay, clinical yeast isolates; format: cell-based; conditions: range over clinical isolates of Candida (Figure S2)
[4] = test system: reference and clinical strains of Aspergillus; assay: Disc-diffusion antifungal assay, Aspergillus strains; format: cell-based; conditions: range over clinical isolates of Aspergillus (Figure S2)
A. niger ATCC 16404 = assay: Broth two-fold microdilution MIC (CLSI); format: cell-based, Aspergillus niger; conditions: A. niger ATCC 16404; RPMI 1640 pH 7.0, 35 °C, 48 h, no visible growth
A. terreus 3 K = assay: Broth two-fold microdilution MIC (CLSI); format: cell-based; conditions: A. terreus 3 K; RPMI 1640 pH 7.0, 35 °C, 48 h
A. fumigatus 390 m [5] = assay: Broth two-fold microdilution MIC (CLSI); format: cell-based, Aspergillus fumigatus; conditions: A. fumigatus 390 m clinical isolate; RPMI 1640 pH 7.0, 35 °C, 48 h
Candida albicans 1402 = assay: Broth microdilution MIC and MFC (CLSI); format: cell-based
C. glabrata 1402 = assay: Broth microdilution MIC and MFC (CLSI); format: cell-based
C. tropicalis 156 = assay: Broth microdilution MIC and MFC (CLSI); format: cell-based
C. parapsilosis 571 = assay: Broth microdilution MIC and MFC (CLSI); format: cell-based
[6] = test system: Cryptococcus neoformans 297; assay: Broth microdilution MIC and MFC (CLSI); format: cell-based
[7] = test system: clinical yeast isolates (Candida, Cryptococcus); assay: Broth microdilution MIC/MFC, pathogenic multidrug yeast strains; format: cell-based; conditions: isolates of C. albicans, C. glabrata and C. neoformans
Hela cell line = conditions: previous study; cited from earlier work
Source text: Accordingly, despite the high IC50 values for this molecule, fairly significant amounts of antibiotic are required to suppress the cell growth in vitro. The calculated therapeutic index value is sufficiently high due to a low cytotoxicity level for normal cells, which is an undeniable advantage over both pre-scorubicin and most other antitumor compou ...

Substance: Methyldecanoyl-MePro-AHMOD-Ala-Aib-Ile-Iva-βAla-Alaol-Glyol [EmiA, emericellipsin A, nonribosomal lipopeptaibol, major compound of E. alkalina VKPM F1428]
- Zone of Inhibition [1]: 25 ± 0.21 mm
- Zone of Inhibition (A. fumigatus 390 m [2]): 20 ± 0.40 mm
- Zone of Inhibition (A. terreus 497): 14 ± 0.28 mm
- inhibition zones [3]: 20–25 mm
- inhibition zones [4]: 15–19 mm
- Minimal Inhibitory Concentration (MIC) (A. niger ATCC 16404): 4 µg/mL
- Minimal Inhibitory Concentration (MIC) (A. terreus 3 K): 0.5 µg/mL
- Minimal Inhibitory Concentration (MIC) (A. fumigatus 390 m [5]): 2 µg/mL
- MFC (Candida albicans 1402; Candida albicans 1402, lowest concentration causing 95% death, plated on PDA agar): 4 µg/mL
- MIC (Candida albicans 1402; Candida albicans 1402 clinical isolate, RPMI 1640 pH 7.0, 35 °C, 24 h): 2 µg/mL
- MFC (C. glabrata 1402; C. glabrata 1402, lowest concentration causing 95% death): 0.5 µg/mL
- MIC (C. glabrata 1402; C. glabrata 1402 clinical isolate, RPMI 1640 pH 7.0, 35 °C, 24 h): 0.25 µg/mL
- MFC (C. tropicalis 156; C. tropicalis 156, lowest concentration causing 95% death): 2 µg/mL
- MIC (C. tropicalis 156; C. tropicalis 156 clinical isolate, RPMI 1640 pH 7.0, 35 °C, 24 h): 1 µg/mL
- MFC (C. parapsilosis 571; C. parapsilosis 571, lowest concentration causing 95% death): 1 µg/mL
- MIC (C. parapsilosis 571; C. parapsilosis 571 clinical isolate, RPMI 1640 pH 7.0, 35 °C, 24 h): 1 µg/mL
- MFC ([6]; Cryptococcus neoformans 297, lowest concentration causing 95% death): 0.5 µg/mL
- MIC ([6]; Cryptococcus neoformans 297 clinical isolate, RPMI 1640 pH 7.0, 35 °C, 24 h): 0.5 µg/mL
- MIC/MFCs range [7]: 0.25 to 4 µg/mL
- EC50 (Hela cell line): < 500 nM
